ChEMBL document CHEMBL1137644, “Polymyxin B induces lysis of marine pseudoalteromonads” (Antimicrob Agents Chemother, 2007)
Activity calls are given as the source filed them. The calls are words filed in the database; no cut-off is given here. Bridge positions count the residues as written; N and C are the ends. Square brackets hold non-standard residues; d marks the D form. Peptide text beside a SMILES is read from it. Dab = NCC[C@H](N)C(=O)O

Assays:
Assay type in all cases: functional, organism-based
Pseudoalteromonas [1] = assay: Antimicrobial activity against Pseudoalteromonas ER72M2 up to 50 ug/ml
Pseudoalteromonas [2] = assay: Induction of cell lysis in Pseudoalteromonas ER72M2 assessed as outer membrane permeability at 50 ug/ml
Pseudoalteromonas [3] = assay: Induction of cell lysis in Pseudoalteromonas ER72M2 assessed as cytoplasmic membrane integrity at 50 ug/ml
Pseudoalteromonas [4] = assay: Induction of cell lysis in Pseudoalteromonas ER72M2 assessed as depolarization of cytoplasmic membrane treated at 50 ug/ml after 30 mins addition of Mg2+ and Ca2+
Pseudoalteromonas [5] = assay: Induction of cell lysis in Pseudoalteromonas ER72M2 assessed as decrease in culture turbidity treated at 50 ug/ml after 30 mins addition of Ca2+
Pseudoalteromonas [6] = assay: Induction of cell lysis in Pseudoalteromonas ER72M2 assessed as decrease in culture turbidity
Pseudoalteromonas [7] = assay: Induction of cell lysis in Pseudoalteromonas ER72M2 assessed as decrease in culture turbidity treated at 50 ug/ml after 30 mins addition of Ca2+, Mg2+
Pseudoalteromonas [8] = assay: Induction of cell lysis in Pseudoalteromonas ER72M2 assessed as permeability across outer membrane at 2 ug/ml
Pseudoalteromonas [9] = assay: Induction of cell lysis in Pseudoalteromonas ER72M2 assessed as decrease in culture turbidity treated at 50 ug/ml after 30 mins addition of Mg2+
Pseudoalteromonas [10] = assay: Induction of cell lysis in Pseudoalteromonas ER72M2 at 10 ug/ml
Pseudoalteromonas [11] = assay: Antimicrobial activity against Pseudoalteromonas ER72M2 assessed as after 50 hrs in presence of Mg2+ and Ca2+ by epsilometer agar diffusion method
Pseudoalteromonas [12] = assay: Induction of cell lysis in Pseudoalteromonas ER72M2 assessed as leakage of intracellular K+ at 3 ug/ml in presence of gramicidin D
Pseudoalteromonas [13] = assay: Antimicrobial activity against Pseudoalteromonas ER72M2 after 50 hrs in presence of Ca2+ cation by epsilometer agar diffusion method
Pseudoalteromonas [14] = assay: Induction of cell lysis in Pseudoalteromonas ER72M2 assessed as leakage of intracellular K+ treated at 50 ug/ml after 30 mins incubation
Pseudoalteromonas [15] = assay: Induction of cell lysis in Pseudoalteromonas ER72M2 assessed as accumulation of tetraphenylphonium treated at 50 ug/ml after 30 mins addition of Mg2+ and Ca2+
Pseudoalteromonas [16] = assay: Induction of cell lysis in Pseudoalteromonas ER72M2 assessed as increase in accumulation of phenyldicarbaundecaborane at 2 ug/ml
Pseudoalteromonas [17] = assay: Induction of cell lysis in Pseudoalteromonas ER72M2 assessed as depolarization of cytoplasmic membrane at 3 ug/ml in presence of gramicidin D
Pseudoalteromonas [18] = assay: Induction of cell lysis in Pseudoalteromonas ER72M2 at 10 ug/ml in presence of arsenate
Pseudoalteromonas [19] = assay: Induction of cell lysis in Pseudoalteromonas ER72M2 assessed as decrease in culture turbidity at 2 ug/ml in presence of nigericin
Pseudoalteromonas [20] = assay: Induction of cell lysis in Pseudoalteromonas ER72M2 assessed as accumulation of phenyldicarbaundecaborane treated at 50 ug/ml after 30 mins addition of Mg2+ and Ca2+
Pseudoalteromonas [21] = assay: Induction of cell lysis in Pseudoalteromonas ER72M2 assessed as binding of phenyldicarbaundecaborane at 3 ug/ml in presence of gramicidin D
Pseudoalteromonas [22] = assay: Induction of cell lysis in Pseudoalteromonas ER72M2 assessed as accumulation of phenyldicarbaundecaborane treated at 50 ug/ml after 30 mins incubation
Pseudoalteromonas [23] = assay: Antimicrobial activity against Pseudoalteromonas ER72M2 after 50 hrs by epsilometer agar diffusion method
Pseudoalteromonas [24] = assay: Induction of cell lysis in gramicidin D-deplolarized Pseudoalteromonas ER72M2 assessed as decrease in culture turbidity at 2 ug/ml
[25] = test system: Pseudoalteromonas espejiana; assay: Induction of cell lysis in Pseudoalteromonas espejiana BAL31 assessed as decrease in culture turbidity at 50 ug/ml
Pseudoalteromonas [26] = assay: Induction of cell lysis in Pseudoalteromonas ER72M2 assessed as increase in accumulation of tetraphenylphonium at 2 ug/ml
Escherichia coli = assay: Induction of cell lysis in Escherichia coli HMS174 assessed as decrease in culture turbidity at 50 ug/ml
Pseudoalteromonas [27] = assay: Induction of cell lysis in Pseudoalteromonas ER72M2 assessed as increase in extracellular concentration of tetraphenylphonium treated at 50 ug/ml after 30 mins incubation
Pseudoalteromonas [28] = assay: Induction of cell lysis in Pseudoalteromonas ER72M2 assessed as decrease in culture turbidity at 2 ug/ml in presence of gramicidin D
Pseudoalteromonas [29] = assay: Antimicrobial activity against Pseudoalteromonas ER72M2 after 50 hrs in presence of Mg2+ cation by epsilometer agar diffusion method
Pseudoalteromonas [30] = assay: Induction of cell lysis in Pseudoalteromonas A28 assessed as decrease in culture turbidity at 50 ug/ml
Pseudoalteromonas [31] = assay: Induction of cell lysis in Pseudoalteromonas ER72M2 assessed as complete lysis treated at 50 ug/ml after 30 mins addition of Ca2+, Mg2+
Pseudoalteromonas [32] = assay: Induction of cell lysis in Pseudoalteromonas ER72M2 assessed as voltage dissipation in presence of KCN
Pseudoalteromonas [33] = assay: Induction of cell lysis in Pseudoalteromonas ER72M2 assessed as intense membrane alkalization treated at 50 ug/ml after 30 mins addition of Mg2+ and Ca2+
Pseudoalteromonas [34] = assay: Induction of cell lysis in Pseudoalteromonas ER72M2 assessed as shrinkage of intracellular volume after 25 mins in presence of divalent cation by light microscopy
Pseudoalteromonas [35] = assay: Induction of cell lysis in Pseudoalteromonas ER72M2 assessed as decipation of K+ gradient on cytoplasmic membrane treated at 50 ug/ml after 30 mins addition of Mg2+ and Ca2+
Pseudoalteromonas [36] = assay: Induction of cell lysis in Pseudoalteromonas ER72M2 assessed as dipolarization of cytoplasmic membrane treated at 50 ug/ml after 30 mins incubation
Pseudoalteromonas [37] = assay: Induction of cell lysis in Pseudoalteromonas ER72M2 assessed as increase in alkalization of membrane treated at 50 ug/ml after 30 mins incubation
Pseudoalteromonas [38] = assay: Induction of cell lysis in Pseudoalteromonas ER72M2 assessed as extracellular K+ concentration treated at 50 ug/ml after 30 mins addition of Mg2+ and Ca2+

For CC(C)C[C@@H]1NC(=O)[C@@H](Cc2ccccc2)NC(=O)[C@H](CCN)NC(=O)[C@@H](NC(=O)[C@H](CCN)NC(=O)[C@@H](N)[C@@H](C)O)CCNC(=O)[C@H]([C@@H](C)O)NC(=O)[C@H](CCN)NC(=O)[C@H](CCN)NC1=O (H-T[Dab][Dab][Dab][dF]L[Dab][Dab]T; lactam 3-C), the Activity (Pseudoalteromonas [1]) was “inactive”, the Activity (Pseudoalteromonas [2]) was “Active” and the Activity (Pseudoalteromonas [3]) was “inactive”.

With POLYMYXIN B the Activity (Pseudoalteromonas [4]) was “Active”, the Activity (Pseudoalteromonas [5]) was “Active” and the Activity (Pseudoalteromonas [6]) was “Dose-dependent effect”. For the same compound, the Activity (Pseudoalteromonas [7]) was “inactive”, the Activity (Pseudoalteromonas [8]) was “inactive” and the Activity (Pseudoalteromonas [9]) was “Active”. For the same compound, the Activity (Pseudoalteromonas [10]) was “Active”, the MIC (Pseudoalteromonas [11]) was 0.42 µg/mL and the Activity (Pseudoalteromonas [12]) was “Active”. The MIC (Pseudoalteromonas [13]) was 0.11 µg/mL, the Activity (Pseudoalteromonas [14]) was “Active” and the Activity (Pseudoalteromonas [15]) was “Active”. The Activity (Pseudoalteromonas [16]) was “Active”, the Activity (Pseudoalteromonas [2]) was “Active” and the Activity (Pseudoalteromonas [17]) was “Active”. For the same compound, the Activity (Pseudoalteromonas [18]) was “Active”, the Activity (Pseudoalteromonas [19]) was “Active” and the Activity (Pseudoalteromonas [20]) was “Active”. The Activity (Pseudoalteromonas [21]) was “Active”, the Activity (Pseudoalteromonas [22]) was “Active” and the MIC (Pseudoalteromonas [23]) was 0.33 µg/mL. The Activity (Pseudoalteromonas [24]) was “inactive”, the Activity [25] was “Active” and the Activity (Pseudoalteromonas [26]) was “Active”. The Activity (Escherichia coli) was “Active”, the Activity (Pseudoalteromonas [27]) was “Active” and the Activity (Pseudoalteromonas [28]) was “inactive”. The MIC (Pseudoalteromonas [29]) was 0.33 µg/mL, the Activity (Pseudoalteromonas [30]) was “Active” and the Activity (Pseudoalteromonas [31]) was “inactive”. The Activity (Pseudoalteromonas [32]) was “Active”, the Activity (Pseudoalteromonas [33]) was “Active” and the Activity (Pseudoalteromonas [34]) was “Active”. For the same compound, the Activity (Pseudoalteromonas [35]) was “Active”, the Activity (Pseudoalteromonas [36]) was “Active” and the Activity (Pseudoalteromonas [37]) was “Active”. For the same compound, the Activity (Pseudoalteromonas [38]) was “Active”.
